Reference: patent publication US11046945B2, “Labeled glutaminase proteins, isolated glutaminase protein mutants, methods of use, and kit” (CORNELL UNIVERSITY, priority 2013, dated 2021)

Target: T1, GAC (Mus musculus, UniProt D3Z7P3)
T1 construct: plasmid (residues 72-603 for GAC, 72-674 for KGA); His-tag with thrombin cleavage site (N, cleaved yes); made in house; host or cells: pET23a vector
T1 sequence (D3Z7P3 72-603 isoform D3Z7P3-2): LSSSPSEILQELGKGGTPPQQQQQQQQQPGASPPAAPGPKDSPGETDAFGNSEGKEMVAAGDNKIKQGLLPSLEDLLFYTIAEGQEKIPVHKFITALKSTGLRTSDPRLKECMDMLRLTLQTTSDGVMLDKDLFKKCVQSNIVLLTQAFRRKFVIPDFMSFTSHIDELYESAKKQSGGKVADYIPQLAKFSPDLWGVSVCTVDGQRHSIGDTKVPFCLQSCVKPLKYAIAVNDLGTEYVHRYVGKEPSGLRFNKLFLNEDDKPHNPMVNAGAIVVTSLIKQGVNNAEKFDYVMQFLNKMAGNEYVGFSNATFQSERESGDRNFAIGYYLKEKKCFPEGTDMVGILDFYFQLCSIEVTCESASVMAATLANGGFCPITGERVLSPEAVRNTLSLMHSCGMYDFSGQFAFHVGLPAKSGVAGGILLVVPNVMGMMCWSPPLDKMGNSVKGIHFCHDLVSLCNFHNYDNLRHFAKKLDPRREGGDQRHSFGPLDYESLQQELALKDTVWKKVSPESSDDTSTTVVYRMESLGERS
Assay: FRET assay of GAC tetramer formation (488-GAC donor, QSY 9-GAC acceptor)
Type: binding
Details: for effect on 488-GAC fluorescence emission in equilibrated 488-GAC/QSY 9-GAC mixture: 20 nM 488-GAC and 200 nM QSY 9-GAC
From the text: A mouse kidney type glutaminase isoform 1 (KGA, NP_001074550.1, which is hereby incorporated by reference in its entirety (SEQ ID NO:7)) and isoform 2 (GAC, NP_001106854.1, which is hereby incorporated by reference in its entirety (SEQ ID NO:3)) plasmid (residues 72-603 for GAC, 72-674 for KGA) was cloned into a pET23a vector containing an N-terminal histidine (His)-tag and thrombin cleavage site. The expressed protein was initially purified using Co^2+ affinity beads (Clontech), after which the His-tag was cleaved with human thrombin (Haemetologic Technologies) overnight at 4° C. and subsequently purified by anion exchange (GE healthcare) and gel filtration chromatography. Purified GAC or KGA was stored in a high salt containing buffer (20 mM Tris-HCl pH 8.5, 500 mM NaCl, 1 mM NaN3) and stored at −80° C. following snap freezing in liquid N2 for long term use. For labeling recombinant GAC or KGA with small molecule probes, 1.5 mg of enzyme was exchanged to 50 mM HEPES pH 7.2, 100 mM NaCl using a PD10 desalting column (GE healthcare) and incubated with 50 μM (5-fold excess of enzyme) of either ALEXA FLUOR® 488 succinimidyl ester or QSY® 9 succinimidyl ester (Molecular Probes) for 1 hr at 4° C. After 1 hr, the labeling reaction was quenched with 150 mM Tris-HCl pH 8.5 and unreacted probe was separated from labeled-enzyme using a PD10 desalting column eluting labeled-GAC back into the high salt containing buffer.
Fluorescence experiments were performed using a Varian Carry Eclipse Fluorometer in the counting mode. Excitation and emission wavelengths were 490 and 520 nm, respectively. Experiments were all prepared as one-mL samples and stirred continuously at 20° C. in 50 mM Tris-Acetate pH 8.5, 0.1 mM ethylenediaminetetraacetic acid (EDTA). For WT GAC titrations in the absence of inorganic phosphate, 10 nM 488-GAC was equilibrated followed by injection of 25 μL of the appropriate concentration of QSY® 9-GAC and was allowed to equilibrate for 10 minutes at which point 75 μL of the appropriate concentration of unlabeled WT GAC was added to give a concentration that was ten-times that of labeled-GAC (i.e., 10-fold excess). For FRET experiments prepared for inorganic phosphate titrations, a similar protocol was followed whereby 10 nM of 488-GAC was equilibrated with 400 nM QSY® 9-GAC followed by injection of 100 μL of the appropriate concentration of K2HPO4 prepared in 50 mM Tris-Acetate (pH=8.5) 0.1 mM EDTA buffer. To test whether purified mutants can form oligomers with WT GAC, 200 nM QSY® 9-D391K-GAC or 200 nM QSY® 9-K316E-D391K-R459E was added to an equilibrated sample of 20 nM 488-WT GAC. Likewise, when assaying the effects of BPTES and 968 on oligomer formation, BPTES or 968 (10 μM or 25 μM, respectively) was added following equilibration of a sample of 200 nM of QSY® 9-WT GAC and 20 nM 488-WT GAC. Both BPTES and 968 were prepared in DMSO, and appropriate dilutions were made so that less than 2% (v/v) DMSO was added to an experimental sample.

Row | Compound | effect on 488-GAC fluorescence emission in equilibrated 488-GAC/QSY 9-GAC mixture (25 μM 968) | effect on 488-GAC fluorescence emission in equilibrated 488-GAC/QSY 9-GAC mixture (10 μM BPTES) | reversal of induced tetramers/quenching by excess unlabeled GAC (10 μM BPTES, 10-fold excess unlabeled GAC)
1 | CN(C)c1ccc(C2Nc3ccc4ccccc4c3C3=C2C(=O)CC(C)(C)C3)cc1Br (stereo not drawn) [compound 968] | significant change in the fluorescence emission |  | 
2 | O=C(Cc1ccccc1)Nc1nnc(CCSCCc2nnc(NC(=O)Cc3ccccc3)s2)s1 [BPTES] |  | immediate quenching | stable and not disrupted
